Molecules are shown by their SMILES.

Assay [1] deals with T1, Glutamate receptor ionotropic, AMPA (Rattus norvegicus, UniProt P19490+P19491+P19492+P19493). Description: Displacement of [3H]CP-526427 from AMPA receptor in rat forebrain membranes. The class given is cell membranes, Membrane. (In general: Loss of bound radioactivity is the signal in a displacement assay; it reports binding, not function.)
Assay [2] deals with Mus musculus. Nature of the assay: Effect on clonic phase of audiogenic seizures in DBA/2 mice at 3.3-200 umol/kg, ip. The following applies: DBA/2, ip. Type of assay: functional.
For assay [3], the system named is Mus musculus. Description: Effect on tonic phase of audiogenic seizures in DBA/2 mice at 3.3-200 umol/kg, ip. Type of assay: functional. Conditions: DBA/2, ip.
The subject of assay [4] is Mus musculus. Description: Protective index [PI = TD50/ED50 (from clonic phase of the audiogenic seizures)] in mice at 3.3-200 umol/kg, ip. Type of assay: functional.
In assay [5] the target is T1, Glutamate receptor ionotropic, AMPA. Description: Ability to inhibit kainate-induced increase of calcium in rat cerebellar granule cells expressing AMPA receptor. Type of assay: functional.
Assay [6] concerns the target Glutamate receptor ionotropic, kainate 1 (Rattus norvegicus, UniProt P22756). Description: Ability to inhibit domoic acid-induced increase of calcium in rat HEK293 cells expressing GluR5. Type of assay: functional, cell-based.
Assay [7] has as its system Mus musculus. Nature of the assay: Effect on locomotion in mice assessed by rotarod test at 3.3-200 umol/kg, ip. Type of assay: functional. Background: The rotarod test checks motor coordination on a turning rod.

Glutamate receptor ionotropic, kainate 1, sequence (P22756 whole entry): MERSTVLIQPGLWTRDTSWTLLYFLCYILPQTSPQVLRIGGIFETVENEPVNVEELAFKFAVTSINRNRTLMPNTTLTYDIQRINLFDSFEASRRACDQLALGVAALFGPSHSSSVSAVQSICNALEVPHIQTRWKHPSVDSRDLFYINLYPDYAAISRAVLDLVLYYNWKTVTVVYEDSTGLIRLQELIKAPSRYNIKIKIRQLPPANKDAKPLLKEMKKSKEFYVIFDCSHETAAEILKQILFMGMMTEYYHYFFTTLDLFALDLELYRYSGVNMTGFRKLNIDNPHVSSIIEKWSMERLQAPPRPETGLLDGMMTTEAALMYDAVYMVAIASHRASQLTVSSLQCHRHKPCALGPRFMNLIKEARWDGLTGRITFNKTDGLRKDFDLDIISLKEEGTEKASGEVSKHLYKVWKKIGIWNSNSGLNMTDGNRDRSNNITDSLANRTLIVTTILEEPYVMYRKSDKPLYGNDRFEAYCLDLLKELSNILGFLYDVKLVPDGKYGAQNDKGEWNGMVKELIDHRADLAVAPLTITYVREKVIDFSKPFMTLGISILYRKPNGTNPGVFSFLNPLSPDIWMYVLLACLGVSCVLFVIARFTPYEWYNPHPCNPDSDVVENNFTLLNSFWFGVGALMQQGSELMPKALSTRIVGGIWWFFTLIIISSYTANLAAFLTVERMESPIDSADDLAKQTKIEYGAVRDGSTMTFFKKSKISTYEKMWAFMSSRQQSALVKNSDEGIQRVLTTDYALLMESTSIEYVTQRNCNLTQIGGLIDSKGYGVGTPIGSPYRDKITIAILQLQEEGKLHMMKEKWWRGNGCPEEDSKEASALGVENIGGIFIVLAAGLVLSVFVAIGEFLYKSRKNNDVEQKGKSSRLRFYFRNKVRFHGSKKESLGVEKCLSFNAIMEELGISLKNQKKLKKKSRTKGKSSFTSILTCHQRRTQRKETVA

For `Nc1ccc(C2=NNC(=O)Cc3cc4c(cc32)OCCO4)c(Cl)c1`, in assay [1], the IC50 was > 20 µM. Further, the 50% effective dose (ED50) in the assay on Mus musculus [2] and in the assay with Mus musculus [3] was > 100 µmol/kg throughout.
For the compound `CCNC(=O)N1N=C(c2ccc(N)cc2)c2cc3c(cc2CC1=O)OCO3`, the 50% inhibitory concentration (IC50) in assay [1] was 12 µM; in assay [5], 11 µM. For the same compound, the “Ratio TD50/ED50” value in the assay with Mus musculus [4] turned out to be 3.8.
With `CNC(=O)N1N=C(c2ccc(N)cc2)c2cc3c(cc2CC1=O)OCO3`, in the assay on Mus musculus [4], the “Ratio TD50/ED50” value is listed as 3.9.
Turning to `Nc1ccc(C2=NNC(=O)Cc3cc4c(cc32)OCCO4)cc1`, the ED50 is 61.3 µmol/kg in the assay with Mus musculus [2] and 44.8 µmol/kg in the assay with Mus musculus [3]. Also, the IC50 in assay [6] is > 10 µM; in assay [5], 2.9 µM. The TD50 in the assay on Mus musculus [7] worked out at 102 µmol/kg. Further, in the assay on Mus musculus [4], the “Ratio TD50/ED50” value is 1.7.
`Nc1ccc(C2=NNC(=O)Cc3cc4c(cc32)OCCO4)cc1Cl` showed a concentration for half-maximal inhibition (IC50) in assay [1] of 2 µM. For the same compound, the ED50 in the assay with Mus musculus [2] was found to be 70.8 µmol/kg; in the assay with Mus musculus [3], 27.2 µmol/kg. In the assay with Mus musculus [7], this compound displayed a TD50 of 99.1 µmol/kg. The “Ratio TD50/ED50” value with Mus musculus [4] amounted to 1.4.
In the case of `Nc1ccc(C2=NNC(=O)Cc3cc4c(cc32)OCO4)cc1`, the “Ratio TD50/ED50” value in the assay with Mus musculus [4] is 4.5. Besides, the IC50 in assay [5] worked out at 12 µM.
As to `CC1=NN=C(c2ccc(N)cc2)c2cc3c(cc2C1)OCO3` [GYKI-52466], the “Ratio TD50/ED50” value in the assay on Mus musculus [4] amounted to 2.1.
`CNC(=O)N1N=C(c2ccc(N)cc2)c2cc3c(cc2CC1=O)OCCO3`: the ED50 in the assay on Mus musculus [2] was determined as 45.5 µmol/kg; in the assay on Mus musculus [3], 32.1 µmol/kg. Moreover, the TD50 with Mus musculus [7] turned out to be 96.4 µmol/kg. Also, the “Ratio TD50/ED50” value in the assay with Mus musculus [4] is 2.1. Besides, the IC50 in assay [5] came out at 5.4 µM.
Compound `Cc1cc(C2=NNC(=O)Cc3cc4c(cc32)OCCO4)ccc1N` showed an IC50 in assay [1] of 1.8 µM. The ED50 in the assay on Mus musculus [2] amounted to 48.2 µmol/kg; with Mus musculus [3], 24.6 µmol/kg. Besides, in the assay on Mus musculus [7], the TD50 turned out to be 115 µmol/kg. In addition, the “Ratio TD50/ED50” value in the assay on Mus musculus [4] turned out to be 2.4.
Consider `CCNC(=O)N1N=C(c2ccc(N)cc2)c2cc3c(cc2CC1=O)OCCO3`, for which the concentration for half-maximal inhibition (IC50) in assay [1] came to 9.3 µM. Also, the results for the ED50 in the assay on Mus musculus [2] and with Mus musculus [3] were 48.1 µmol/kg and 41.7 µmol/kg, respectively. For the same compound, in the assay with Mus musculus [7], the TD50 is 95.3 µmol/kg. In the assay with Mus musculus [4], the “Ratio TD50/ED50” value is recorded as 2.

For orientation: IC50 means the concentration that gives 50% inhibition. The ED50 is the midpoint of the dose-response relation. A low value points to an effect at a small dose. Broadly, the TD50 is the dose at which the toxic effect under study appears in half of the subjects.

The values are drawn from ChEMBL document CHEMBL1148548, “New 7,8-ethylenedioxy-2,3-benzodiazepines as noncompetitive AMPA receptor antagonists” (Bioorg Med Chem Lett, 2006).
